{
  "source": "patent US11884647B2",
  "about": "“Compounds and methods for targeting pathogenic blood vessels” (THE REGENTS OF THE UNIVERSITY OF CALIFORNIA, priority 2019, dated 2024)",
  "system": "tumor endothelial cells (LL/2 lung cancer tumor)",
  "experiment": "Lung LL2 ex vivo model of tumor angiogenesis",
  "type": "cell-based, mouse",
  "conditions": "for cytotoxicity at 20 µM / cytotoxicity at 40 µM / cytotoxicity at 10 µM: Mus musculus, Endothelial cell, 48 h, read-out: Cell death; for Cell death: drug treatment two days",
  "description": "This example describes a procedure to prepare a primary tumor angiogenesis model for assessing the efficacy of anti-cancer candidate agents.\n1. The day before the experiment, spray all necessary tools with 70% ethanol and sterilize them under UV light overnight, including blade, dissecting and micro-dissecting scissors and […]. Place 24-well dishes at 4° C. to pre-chill plates and thaw Matrigel 24 hours before tumor dissection.\n2. Spray 70% ethanol on working bench. Prepare two sterile petri dishes with 10 mL sterile PBS. Steps 3 and 4 are for mouse tumor models. For fresh human tumor, directly go to step 5.\n3. Euthanize the tumor-bearing mice. Spray 70% ethanol on the mouse and remove the tumor using sterilized dissecting tools (avoid the fur). Rinse the tumor in petri dish with sterile PBS to remove ethanol and fur. Transfer the tumor to a new petri dish with PBS for dissection. Place the dish on ice.\n4. Using pre-chilled sterile pipet tips to seed regular Matrigel in 24 well plates on ice. Matrigel (30 μL) is dropped in the middle of each well without touching the edge of the well (avoid introducing bubbles if possible).\n5. Cut the tumor in halves using the sterile blade. Identify and isolate healthy tumor tissue that is not necrotic and is within the tumor capsule. Cut the healthy tumor tissue into small pieces. For instance, a suitable size for the tumor tissue is 0.5 mm (H)×0.5 mm (L)×0.3 mm (D) with a total volume of 0.075 mm^3.\n6. Gently transfer and embed each tumor piece in the Matrigel drop in the 24-well plate. Place the embedded piece in the bottom and middle of each Matrigel drop. Keep the plate on ice all the time.\n7. After seeding the tumor pieces, plates are incubated in a 37° C. cell culture incubator without medium for 10 minutes in order for the Matrigel to solidify.\n8. Endothelial Growth Medium (0.5 mL) is added to each well and incubated at 37° C. with 5% CO2. Wait until the new endothelial cells have grown out of the tumor or are larger than 3 mm in diameter until treatment. This usually takes 4 days for the LL2 Lewis lung cancer model and 7 days for the CT26 colon cancer model. For human tumor models, the growth time is typically 2-3 weeks, depending on the tumor type. Media is changed every 4 days during prolonged culture. Typically, when the tumor tissue grows to 2 mm in diameter, it is good for drug testing. A size of about 3 mm in diameter can make visualization easier.\n9. When the assay is ready to be analyzed for cell death (e.g., 48 hours after drug addition), prepare the dye mixture by mixing 6 μL of green dye to stain live cells (5 mg/mL Fluorescein diacetate or FDA in DMSO) with 30 μL of red dye (2.5 mg/mL Propidium iodide or PI in PBS) to stain dead cells in an Eppendorf tube. The FDA dye needs to be stored frozen in a −20° C. freezer because it has a labile ester bond.\n10. Add 1 μL of the dye mixture to each well of the 24-well dish. It is usually performed one 24-well dish at a time given the amount of time needed to take pictures (the green dye is not as stable in the cells in the long term).\n11. Gently rock the dish a few times to mix the dye with the media in the wells and incubate the dish at 37° C. for 10 min (too long incubation can make the green signal too intense).\n12. Wash each well with 0.5 mL of sterile PBS and then add 0.5 mL of phenol red free SFM to each well. Alternatively 0.5 mL of regular Endothelial Cell Growth Media can be added to each well if this well needs to be continuously maintained after the experiment.\n13. Look through all wells on an inverted microscope using the 2× objective lens to observe morphological changes.\n14. Taking pictures in the red and green channels would allow not only the recording of the result but also more accurate quantitation of the result. To take pictures for all the wells, first pick a well that has robust red and green signals. […]",
  "data": [
    {"molecule": "CCCCCCCCCCCCOc1ccc(S(=O)(=O)c2cnc3ccc([S+](C)[O-])cc3c2N2CCC(N3CCC(N4CCCC(O)C4)CC3)CC2)cc1F", "note": "(stereo not shown) [compound 364, 1″-(3-((4-(dodecyloxy)-3-fluorophenyl)sulfonyl)-6-(methylsulfinyl)quinolin-4-yl)-[1,4′:1′,4″- terpiperidin]-3-ol]", "values": [
      {"measurement": "cytotoxicity at 20 µM", "value": 30, "unit": "%"}
    ]},
    {"molecule": "CCCCOc1ccc(S(=O)(=O)c2cnc3ccc(C(=O)OCC)cc3c2N2CCC(N3CCC(CO)CC3)CC2)cc1", "note": "[compound 178, ethyl 3-((4-butoxyphenyl)sulfonyl)-4-(4-(hydroxymethyl)-[1,4′-bipiperidin]-1′-yl)quinoline-6-carboxylate]", "values": [
      {"measurement": "cytotoxicity at 40 µM", "value": 100, "unit": "%"}
    ]},
    {"molecule": "CCCCCCCOc1ccc(S(=O)(=O)c2cnc3ccc([S+](C)[O-])cc3c2N2CCN(C3CCN(Cc4ccccc4)C3)CC2)cc1", "note": "(stereo not shown) [compound 278, 4-(4-(1-benzylpyrrolidin-3-yl)piperazin-1-yl)-3-((4-(heptyloxy)phenyl)sulfonyl)-6-(methylsulfinyl)quinoline]", "values": [
      {"measurement": "cytotoxicity at 10 µM", "value": 50, "unit": "%"}
    ]},
    {"molecule": "CCCCCCCCCCCCCCOc1ccc(S(=O)(=O)c2cnc3ccc([S](C)[O])cc3c2N2CCC(N3CCC(N4CCCC(O)C4)CC3)CC2)cc1", "note": "(stereo not shown) [compound 348, 1″-(6-(methyl(λ^1-oxidanyl)-λ^3-sulfanyl)-3-((4-(tetradecyloxy)phenyl)sulfonyl)quinolin-4-yl)-[1,4′:1′,4″-terpiperidin]-3-ol]", "values": [
      {"measurement": "48 hrs (morphology observations after 48 hours)", "setting": "Lung LL2 ex vivo, Conc. 20 μm, 48 hrs", "value": "* (50% or less of cells vesicularize in cell shape)"},
      {"measurement": "Cell death", "setting": "Lung LL2 ex vivo, Conc. 20 μm", "value": 20, "unit": "%"}
    ]},
    {"molecule": "CCc1ccc(S(=O)(=O)c2cnc3ccc(OC(F)(F)F)cc3c2NCc2ccncc2)cc1", "note": "[compound 106, 3-((4-ethylphenyl)sulfonyl)-N-(pyridin-4-ylmethyl)-6-(trifluoromethoxy)quinolin-4-amine]", "values": [
      {"measurement": "cytotoxicity at 20 µM", "value": 5, "unit": "%"}
    ]},
    {"molecule": "CCCCOc1ccc(S(=O)(=O)c2cnc3ccc(SC)cc3c2N2CCCN(CCO)CC2)cc1", "note": "[compound 351, 2-(4-(3-((4-butoxyphenyl)sulfonyl)-6-(methylthio)quinolin-4-yl)-1,4-diazepan-1-yl)ethan-1-ol]", "values": [
      {"measurement": "Cell death", "setting": "Lung LL2 ex vivo, Conc. 40 μm", "value": 100, "unit": "%"}
    ]},
    {"molecule": "CCCCOc1ccc(S(=O)(=O)c2cnc3ccc(SC)cc3c2N2CCCN(C3COC3)CC2)cc1", "note": "[compound 355, 3-((4-butoxyphenyl)sulfonyl)-6-(methylthio)-4-(4-(oxetan-3-yl)-1,4-diazepan-1-yl)quinoline]", "values": [
      {"measurement": "Cell death", "setting": "Lung LL2 ex vivo, Conc. 40 μm", "value": 0, "unit": "%"}
    ]},
    {"molecule": "COc1ccc(S(=O)(=O)c2cnc3cc(OC)c(OC)cc3c2N2CCC(N3CCCCC3)CC2)cc1", "note": "[compound 320, 4-([1,4′-bipiperidin]-1′-yl)-6,7-dimethoxy-3-((4-methoxyphenyl)sulfonyl)quinoline]", "values": [
      {"measurement": "cytotoxicity at 40 µM", "value": 30, "unit": "%"}
    ]},
    {"molecule": "CCCCOc1ccc(S(=O)(=O)c2cnc3ccc(S(C)(=O)=O)cc3c2N2CCC(N3CCC(O)CC3)CC2)cc1", "note": "[compound 170, 1′-(3-((4-butoxyphenyl)sulfonyl)-6-(methylsulfonyl)quinolin-4-yl)-[1,4′-bipiperidin]-4-ol]", "values": [
      {"measurement": "cytotoxicity at 20 µM", "value": 10, "unit": "%"}
    ]},
    {"molecule": "CCOC(=O)c1ccc2ncc(S(=O)(=O)c3ccc(OC)cc3)c(-n3ccnc3)c2c1", "note": "[compound 141, ethyl 4-(1H-imidazol-1-yl)-3-((4-methoxyphenyl)sulfonyl)quinoline-6-carboxylate]", "values": [
      {"measurement": "cytotoxicity at 20 µM", "value": 90, "unit": "%"}
    ]},
    {"molecule": "CCCCCCCCCCCCCCCCOc1ccc(S(=O)(=O)c2cnc3ccc([S+](C)[O-])cc3c2N2CCC(N3CCC(N4CCCCC4)CC3)CC2)cc1", "note": "(stereo not shown) [compound 377, 4-([1,4′:1′,4″-terpiperidin]-1″-yl)-3-((4-(hexadecyloxy)phenyl)sulfonyl)-6-(methylsulfinyl)quinoline]", "values": [
      {"measurement": "cytotoxicity at 20 µM", "value": 10, "unit": "%"}
    ]},
    {"molecule": "CCN(CC)CCC(C)Nc1c(S(=O)(=O)c2ccc(OC)cc2)cnc2cc(OC)c(OC)cc12", "note": "(stereo not shown) [compound 300, N3-(6,7-dimethoxy-3-((4-methoxyphenyl)sulfonyl)quinolin-4-yl)-N1,N1-diethylbutane-1,3-diamine]", "values": [
      {"measurement": "cytotoxicity at 40 µM", "value": 20, "unit": "%"}
    ]},
    {"molecule": "CCCCOc1ccc(S(=O)(=O)c2cnc3ccc(SC)cc3c2N2CCCN(S(=O)(=O)NCC(F)(F)F)CC2)cc1", "note": "[compound 353, 4-(3-((4-butoxyphenyl)sulfonyl)-6-(methylthio)quinolin-4-yl)-N-(2,2,2-trifluoroethyl)-1,4-diazepane-1-sulfonamide]", "values": [
      {"measurement": "Cell death", "setting": "Lung LL2 ex vivo, Conc. 40 μm", "value": 0, "unit": "%"}
    ]},
    {"molecule": "CCCCCCCCCCOc1ccc(S(=O)(=O)c2cnc3ccc([S+](C)[O-])cc3c2N2CCC(N3CCCC(O)C3)CC2)cc1", "note": "(stereo not shown) [compound 265, 1′-(3-((4-(decyloxy)phenyl)sulfonyl)-6-(methylsulfinyl)quinolin-4-yl)-[1,4′-bipiperidin]-3-ol]", "values": [
      {"measurement": "cytotoxicity at 10 µM", "value": 20, "unit": "%"}
    ]},
    {"molecule": "COc1ccc(S(=O)(=O)c2cnc3cc(OC)c(OC)cc3c2N2C[C@@H]3C[C@H]2CN3C)cc1", "note": "[compound 306, 6,7-dimethoxy-3-((4-methoxyphenyl)sulfonyl)-4-((1S,4S)-5-methyl-2,5-diazabicyclo[2.2.1]heptan-2-yl)quinoline]", "values": [
      {"measurement": "cytotoxicity at 40 µM", "value": 40, "unit": "%"}
    ]},
    {"molecule": "COc1ccc(S(=O)(=O)c2cnc3cc(OC)c(OC)cc3c2N2CCCN(c3nc4ccc(Cl)cc4s3)CC2)cc1", "note": "[compound 327, 6-chloro-2-(4-(6,7-dimethoxy-3-((4-methoxyphenyl)sulfonyl)quinolin-4-yl)-1,4-diazepan-1-yl)benzo[d]thiazole]", "values": [
      {"measurement": "Cell death", "setting": "Lung LL2 ex vivo, Conc. 40 μm", "value": 20, "unit": "%"}
    ]},
    {"molecule": "CCN(CC)CCN(CC)c1c(S(=O)(=O)c2ccc(OC)cc2)cnc2cc(OC)c(OC)cc12", "note": "[compound 296, N1-(6,7-dimethoxy-3-((4-methoxyphenyl)sulfonyl)quinolin-4-yl)-N1,N2,N2-triethylethane-1,2-diamine]", "values": [
      {"measurement": "cytotoxicity at 40 µM", "value": 20, "unit": "%"}
    ]},
    {"molecule": "CCCCOc1ccc(S(=O)(=O)c2cnc3ccc(SC)cc3c2N2CCCN(CC3(O)CCCC3)CC2)cc1", "note": "[compound 354, 1-((4-(3-((4-butoxyphenyl)sulfonyl)-6-(methylthio)quinolin-4-yl)-1,4-diazepan-1-yl)methyl)cyclopentan-1-ol]", "values": [
      {"measurement": "Cell death", "setting": "Lung LL2 ex vivo, Conc. 40 μm", "value": 0, "unit": "%"}
    ]},
    {"molecule": "CCN(c1c(S(=O)(=O)c2ccc(OC)cc2)cnc2cc(OC)c(OC)cc12)C(C)C", "note": "[compound 294, N-ethyl-N-isopropyl-6,7-dimethoxy-3-((4-methoxyphenyl)sulfonyl)quinolin-4-amine]", "values": [
      {"measurement": "cytotoxicity at 40 µM", "value": 50, "unit": "%"}
    ]},
    {"molecule": "COc1ccc(S(=O)(=O)c2cnc3cc(OC)c(OC)cc3c2N2CCC(O)(c3ccccc3)CC2)cc1", "note": "[compound 308, 1-(6,7-dimethoxy-3-((4-methoxyphenyl)sulfonyl)quinolin-4-yl)-4-phenylpiperidin-4-ol]", "values": [
      {"measurement": "cytotoxicity at 40 µM", "value": 20, "unit": "%"}
    ]},
    {"molecule": "CC(C)CCCC(C)CCOc1ccc(S(=O)(=O)c2cnc3ccc([S+](C)[O-])cc3c2N2CCC(N3CCN(CCO)CC3)CC2)cc1", "note": "(stereo not shown) [compound 284, 2-(4-(1-(3-((4-((3,7-dimethyloctyl)oxy)phenyl)sulfonyl)-6-(methylsulfinyl)quinolin-4-yl)piperidin-4-yl)piperazin-1-yl)ethan-1-ol]", "values": [
      {"measurement": "cytotoxicity at 10 µM", "value": 10, "unit": "%"}
    ]},
    {"molecule": "CCCCCCCCCCCCOc1ccc(S(=O)(=O)c2cnc3ccc([S+](C)[O-])cc3c2N2CCC(N3CCC(N4CCN(CCO)CC4)CC3)CC2)cc1F", "note": "(stereo not shown) [compound 368, 2-(4-(1′-(3-((4-(dodecyloxy)-3-fluorophenyl)sulfonyl)-6-(methylsulfinyl)quinolin-4-yl)-[1,4′-bipiperidin]-4-yl)piperazin-1-yl)ethanol]", "values": [
      {"measurement": "cytotoxicity at 20 µM", "value": 20, "unit": "%"}
    ]},
    {"molecule": "CCCCCCCOc1ccc(S(=O)(=O)c2cnc3ccc(SC)cc3c2N2CCN(C3CCN(C)CC3)CC2)cc1", "note": "[compound 273, 3-((4-(heptyloxy)phenyl)sulfonyl)-4-(4-(1-methylpiperidin-4-yl)piperazin-1-yl)-6-(methylthio)quinoline]", "values": [
      {"measurement": "Cell death", "setting": "Lung LL2 ex vivo, Conc. 20 μm", "value": 60, "unit": "%"}
    ]},
    {"molecule": "CCCCCCCCCCOc1ccc(S(=O)(=O)c2cnc3ccc([S+](C)[O-])cc3c2N2CCC(N3CCN(CCO)CC3)CC2)cc1", "note": "(stereo not shown) [compound 268, 2-(4-(1-(3-((4-(decyloxy)phenyl)sulfonyl)-6-(methylsulfinyl)quinolin-4-yl)piperidin-4-yl)piperazin-1-yl)ethan-1-ol]", "values": [
      {"measurement": "cytotoxicity at 20 µM", "value": 50, "unit": "%"}
    ]}
  ]
}
